Measured values published in US12145927B2 (BRISTOL-MYERS SQUIBB COMPANY, priority 2018, dated 2024).

Biological target: T1, human IDO1 (Homo sapiens, UniProt P14902)
T1 construct: expressed in transfected cells
Assay: IDO inhibition assay in human IDO1/HEK293 cells (IDO1 HEK Human)
Format: cell-based
Conditions: HEK293 cells stably expressing human IDO1; 20 hours incubation; absorbance at 490 nm after Ehrlich reagent
Protocol: HEK293 cells were transfected with a pCDNA-based mammalian expression vector harboring human IDO1 cDNA (NM 002164.2) by electroporation. They were cultured in medium (DMEM with 10% FBS) containing 1 mg/ml G418 for two weeks. Clones of HEK293 cells that stably expressed human IDO1 protein were selected and expanded for IDO inhibition assay.
The human IDO1/HEK293 cells were seeded at 10,000 cells per 50 μL per well with RPMI/phenol red free media contains 10% FBS in a 384-well black wall clear bottom tissue culture plate (Matrix Technologies LLC) 100 nL of certain concentration of compound was then added to each well using ECHO liquid handling systems. The cells were incubated for 20 hours in 37° C. incubator with 5% CO2.
The compound treatments were stopped by adding trichloroacetic acid (Sigma-Aldrich) to a final concentration at 0.2%. The cell plate was further incubated at 50° C. for 30 minute. The equal volume supernatant (20 μL) and 0.2% (w/v) Ehrlich reagent (4-dimethylaminobenzaldehyde, Sigma-Aldrich) in glacial acetic acid were mixed in a new clear bottom 384-well plate. This plate was then incubated at RT for 30 minute. The absorbance at 490 nm was measured on Envision plate reader.
Compound IC50 values were calculated using the counts of 500 nM of a reference standard treatment as one hundred percent inhibition, and counts of no compound but DMSO treatment as zero percent inhibition.

T1 sequence (P14902 whole entry): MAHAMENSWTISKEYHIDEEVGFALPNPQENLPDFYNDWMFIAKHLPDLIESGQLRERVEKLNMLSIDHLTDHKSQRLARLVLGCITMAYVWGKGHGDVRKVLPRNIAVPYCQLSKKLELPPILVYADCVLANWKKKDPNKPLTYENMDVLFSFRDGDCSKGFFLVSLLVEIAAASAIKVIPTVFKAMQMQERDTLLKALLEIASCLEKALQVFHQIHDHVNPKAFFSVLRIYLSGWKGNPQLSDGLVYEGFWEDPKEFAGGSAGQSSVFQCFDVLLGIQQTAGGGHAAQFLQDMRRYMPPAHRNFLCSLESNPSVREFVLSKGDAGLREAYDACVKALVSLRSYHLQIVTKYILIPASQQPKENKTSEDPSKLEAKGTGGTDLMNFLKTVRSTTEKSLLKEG

| SMILES | IC50 |
| --- | --- |
| Cc1csc(NC(=O)Nc2cc(-c3ccccc3-c3nnn[nH]3)cc3c2OCCCC3c2ccccc2)n1 (stereo not drawn) [Example 12, 1-(7-(2-(1H-tetrazol-5-yl)phenyl)-5-phenyl-2,3,4,5-tetrahydrobenzo[b]oxepin-9-yl)-3-(4-methylthiazol-2-yl)urea] | 1070 nM |
| C=C[C@H]1Oc2c(NC(=O)Nc3ccc(C)cc3)cc(-c3ccccc3-c3nnn[nH]3)cc2[C@@H]1CCC(F)(F)F (single isomer, unassigned) [Example 130, 1-((trans)-5-(2-(1H-tetrazol-5-yl)phenyl)-3-(3,3,3-trifluoropropyl)-2-vinyl-2,3-dihydrobenzofuran-7-yl)-3-(p-tolyl)urea] | 40 nM |
| Cc1ccc(CC(=O)Nc2cc(-c3ccccc3-c3nnn[nH]3)cc3c2OCCCC3C(C)C)cc1 (single isomer, unassigned) [25 (En. 1), N-(7-(2-(1H-tetrazol-5-yl)phenyl)-5-isopropyl-2,3,4,5-tetrahydrobenzo[b]oxepin-9-yl)-2-(p-tolyl)acetamide] | 28.6 nM |
| Cc1ccc(CC(=O)Nc2cc(-c3ccccc3-c3nnn[nH]3)cc3c2OCCCC3c2ccccc2)cc1 (racemic) [Example 2-1, N-(7-(2-(1H-tetrazol-5-yl)phenyl)-5-phenyl-2,3,4,5-tetrahydrobenzo[b]oxepin-9-yl)-2-(p-tolyl)acetamide] | 98.2 nM |
| CC1(C)Oc2c(NC(=O)Nc3ccc(C(F)(F)F)nc3)cc(-c3ccccc3C(=O)O)cc2C1c1ccccc1 (racemic) [Example 128, (±)-2-(2,2-Dimethyl-3-phenyl-7-(3-(6-(trifluoromethyl)pyridin-3-yl)ureido)-2,3-dihydrobenzofuran-5-yl)benzoic acid] | 2300 nM |
| O=C(Nc1nc2ccccc2s1)Nc1cc(-c2ccccc2-c2nnn[nH]2)cc2c1OCCCC2c1ccccc1 (stereo not drawn) [Example 18, 1-(7-(2-(1H-tetrazol-5-yl)phenyl)-5-phenyl-2,3,4,5-tetrahydrobenzo[b]oxepin-9-yl)-3-(benzo[d]thiazol-2-yl)urea] | 950 nM |
| c1ccc(C2CCCOc3c(Nc4ccc5ccccc5n4)cc(-c4ccccc4-c4nnn[nH]4)cc32)cc1 (single isomer, unassigned) [Example 83, N-(7-(2-(1H-tetrazol-5-yl)phenyl)-5-phenyl-2,3,4,5-tetrahydrobenzo[b]oxepin-9-yl) quinolin-2-amine] | 17.4 nM |
| Cc1ccc(NC(=O)Nc2cc(-c3ccccc3C(=O)O)cc3c2OCCCC3c2ccccc2)cc1 (racemic) [Example 8-1, 2-(5-phenyl-9-(3-(p-tolyl)ureido)-2,3,4,5-tetrahydrobenzo[b]oxepin-7-yl)benzoic acid] | 27.2 nM |

Results, then the compound that gave them:

| IC50 | SMILES |
| --- | --- |
| 117 nM | Cc1ccc(CC(=O)Nc2cc(-c3ccccc3-c3nnn[nH]3)cc3c2OCCCC3C2CC2)cc1 (racemic) [37 (Rac), N-(7-(2-(1H-tetrazol-5-yl)phenyl)-5-cyclopropyl-2,3,4,5-tetrahydrobenzo[b]oxepin-9-yl)-2-(p-tolyl)acetamide] |
| 1400 nM | Cc1cnc(Nc2cc(-c3ccccc3-c3nnn[nH]3)cc3c2OCCCC3c2ccccc2)nc1 (single isomer, unassigned) [55 (En. 1), N-(7-(2-(1H-tetrazol-5-yl)phenyl)-5-phenyl-2,3,4,5-tetrahydrobenzo[b]oxepin-9-yl)-5-methylpyrimidin-2-amine] |
| 1810 nM | Cc1ccc(Nc2cc(-c3ccccc3-c3nnn[nH]3)cc3c2OCCCC3c2ccccc2)nc1 (single isomer, unassigned) [62 (En. 1), N-(7-(2-(1H-tetrazol-5-yl)phenyl)-5-phenyl-2,3,4,5-tetrahydrobenzo[b]oxepin-9-yl)-5-methylpyridin-2-amine] |
| 26.4 nM | Fc1ccc2oc(Nc3cc(-c4ccccc4-c4nnn[nH]4)cc4c3OCCCC4C3CC3)nc2c1 (stereo not drawn) [Example 27, N-(7-(2-(1H-tetrazol-5-yl)phenyl)-5-cyclopropyl-2,3,4,5-tetrahydrobenzo[b]oxepin-9-yl)-5-fluorobenzo[d]oxazol-2-amine] |
